The values that follow come from ChEMBL document CHEMBL1201862, “PubChem BioAssay data set” (2004).

pIC50: −log10 of the molar value. Active and inactive are the calls of the source.

Test [1] concerns the target Dual specificity tyrosine-phosphorylation-regulated kinase 1A (Rattus norvegicus, UniProt Q63470). Type of test: biochemical, Homo sapiens.
The next test has as its system HeLa. Put plainly: viability loss in HeLa cells – cell-based, 24 h, cherry-picked samples, cytotoxicity control, dose response (AID 504726).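 Also: potency for cytotoxicity as loss of luminescence signal.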 Type of test: functional. Conditions: Homo sapiens.
Test [2] in a line: viability loss in THP-1 monocytes – THP-1 cells, cytotoxicity control for Vif-APOBEC3G degradation inhibitor project, dose response (AID 1117359). Type of test: functional. Conditions: THP-1.
Another test concerns Vero. As to the kind of experiment: viability of Vero cells under compound – cytotoxicity control for flavivirus capping enzyme inhibitors (AID 588742). Type of test: functional. The settings on record: Chlorocebus sabaeus.
Test [3] deals with Peroxisome proliferator-activated receptor gamma/Nuclear receptor coactivator 1 (Homo sapiens, UniProt P37231). Type of test: functional.
In test [4] the target is Peroxisome proliferator-activated receptor gamma/Nuclear receptor coactivator 2 (Homo sapiens, UniProt P37231). Type of test: functional.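 Also: agonist potency for raising coactivator recruitment to the receptor.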
Test [5] addresses Peroxisome proliferator-activated receptor gamma/Nuclear receptor coactivator 3 (Homo sapiens, UniProt P37231). Type of test: functional.
The target in another test is T1, Caspase-6 (Homo sapiens, UniProt P55212).
T1 sequence (P55212 whole entry): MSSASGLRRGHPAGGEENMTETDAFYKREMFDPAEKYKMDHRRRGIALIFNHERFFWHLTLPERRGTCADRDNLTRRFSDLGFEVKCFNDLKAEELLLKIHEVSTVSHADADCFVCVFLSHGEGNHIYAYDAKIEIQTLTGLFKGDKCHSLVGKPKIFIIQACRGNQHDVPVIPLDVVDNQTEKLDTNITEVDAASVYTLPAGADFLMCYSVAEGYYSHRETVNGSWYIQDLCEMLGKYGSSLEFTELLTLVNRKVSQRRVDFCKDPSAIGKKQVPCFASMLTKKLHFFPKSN
Put plainly: inhibition of CASP6 peptide cleavage – biochemical, VEID-R110 fluorescence, cherry-pick, dose response (AID 720632).

Test [6] in a line: THP-1 cell cytotoxicity, dose response, cytotoxicity control for non-replicating M. tuberculosis project (AID 489025). Type of test: functional.
Test [7] can be described thus: NIH-3T3 fibroblast cytotoxicity, dose response, cytotoxicity control, cell-based, fluorescence, Alamar Blue, secondary assay (AID 2327).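 Also: NIH-3T3 mouse fibroblasts cultured with fluconazole at 8 µg/mL.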 Type of test: functional.
Test [8] can be described thus: Trypanosoma cruzi growth suppression in host cells – NIH3T3 host cells, beta-gal luminescence, confirmation (AID 2044).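 Also: intracellular parasites grown in NIH/3T3 mouse fibroblasts as host cells; luminescent beta-galactosidase reporter signal from transgenic T. cruzi replicating inside host cells; inhibitors lower the luminescence signal.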 Type of test: functional, cell-based.
A short description of test [9]: fluconazole-exposed Candida albicans growth modulators – fluorescence, retest, confirmation (AID 2467). Type of test: functional, cell-based.
Test [10] addresses ATP-dependent molecular chaperone HSP82 (Candida albicans (strain WO-1) (Yeast), UniProt C4YTQ8). Put plainly: steroid-induced GRE reporter decrease in yeast – S. cerevisiae, luminescence, Hsp90 inhibitor project, dose response (AID 2400).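 Also: beta-galactosidase luminescence from glucocorticoid response element reporter as proxy for Hsp90 function; inhibitor potency where signal loss means Hsp90 inhibition.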 Type of test: functional, cell-based.
For test [11], the target named is T2, Serine/threonine-protein phosphatase (Candida dubliniensis (strain CD36 / CBS 7987 / NCPF 3949 / NRRLY-17841) (Yeast), UniProt B9W6M3).
T2 sequence (B9W6M3 whole entry): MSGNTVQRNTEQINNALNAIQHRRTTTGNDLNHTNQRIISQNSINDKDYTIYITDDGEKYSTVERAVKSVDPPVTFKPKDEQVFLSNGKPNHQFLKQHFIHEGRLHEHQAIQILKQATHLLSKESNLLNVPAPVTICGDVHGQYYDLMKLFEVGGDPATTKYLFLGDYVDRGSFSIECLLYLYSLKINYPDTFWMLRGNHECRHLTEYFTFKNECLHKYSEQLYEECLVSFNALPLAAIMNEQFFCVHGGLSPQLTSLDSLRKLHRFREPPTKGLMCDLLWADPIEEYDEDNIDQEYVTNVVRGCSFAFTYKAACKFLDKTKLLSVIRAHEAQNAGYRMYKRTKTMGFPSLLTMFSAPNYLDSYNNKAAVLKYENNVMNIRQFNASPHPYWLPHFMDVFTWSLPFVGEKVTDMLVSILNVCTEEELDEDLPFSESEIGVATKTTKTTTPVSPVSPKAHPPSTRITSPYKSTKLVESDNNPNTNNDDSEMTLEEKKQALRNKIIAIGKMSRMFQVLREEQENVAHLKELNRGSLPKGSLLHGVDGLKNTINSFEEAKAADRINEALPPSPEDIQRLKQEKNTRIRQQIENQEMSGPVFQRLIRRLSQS
Put plainly: blockers of CaCl2-induced CDRE-lacZ signaling – S. cerevisiae, luminescence, secondary, dose response (AID 2388).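 Also: yeast reporter cells carrying a calcineurin-responsive lacZ construct stimulated with calcium chloride; luminescent beta-galactosidase reporter signal in whole cells rather than isolated phosphatase activity; potency for inhibition where a drop in reporter signal means calcineurin blockade.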 Type of test: functional, cell-based.

Another test is described as follows: cells. Type of test: functional.
Test [12] deals with T3, Microphthalmia-associated transcription factor (Homo sapiens, UniProt O75030).
T3 sequence (O75030 whole entry): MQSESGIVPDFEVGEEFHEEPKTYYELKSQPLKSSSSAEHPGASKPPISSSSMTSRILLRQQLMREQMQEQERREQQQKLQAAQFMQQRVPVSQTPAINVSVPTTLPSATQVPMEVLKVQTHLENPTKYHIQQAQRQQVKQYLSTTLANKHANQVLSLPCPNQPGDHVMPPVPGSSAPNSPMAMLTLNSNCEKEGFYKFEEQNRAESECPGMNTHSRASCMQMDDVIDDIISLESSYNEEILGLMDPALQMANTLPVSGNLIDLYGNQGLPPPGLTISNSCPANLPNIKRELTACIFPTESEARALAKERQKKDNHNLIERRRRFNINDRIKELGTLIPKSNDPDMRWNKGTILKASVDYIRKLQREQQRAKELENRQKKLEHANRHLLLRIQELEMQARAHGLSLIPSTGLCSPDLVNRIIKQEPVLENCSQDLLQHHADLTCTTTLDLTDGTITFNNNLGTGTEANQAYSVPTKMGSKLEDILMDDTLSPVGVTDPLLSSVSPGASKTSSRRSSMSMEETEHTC
Put plainly: reducers of TRPM1 reporter luminescence, concentration series – cell-based, SK-MEL-5, cherry-picked, set 3, MITF inhibitor project, dose response (AID 493073).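 Also: SK-MEL-5 melanoma cells with luciferase driven by the MITF target TRPM1 promoter.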 Type of test: functional.

Test [13] in a line: NIH3T3 cell viability loss – ATP luminescence, mouse fibroblasts, counter-screen, dose response (AID 2010).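 Also: cells exposed to compound for about 90 hours before reading.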 Type of test: functional, cell-based. For orientation: Counterscreens check selectivity or assay interference.
Test [14] in a line: viability of PTEN-deleted HCT116 cells – cell-based, HCT116 PTEN knockout, dose response (AID 1047).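 Also: HCT116 colon tumor cells with PTEN knocked out; cells exposed to compound for 60 hours before readout; potency for loss of cell viability measured by luminescence.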 Type of test: functional.
Test [15] has as its target T4, Fatty acid synthase (Homo sapiens, UniProt P49327). As to the kind of experiment: inhibition of human FAS-TE enzyme activity – biochemical, kinetic fluorescence intensity, dose response (AID 624326).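 Also: rate of fluorescence rise from hydrolysis of a fluorogenic O-methyl fluorescein ester substrate.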 Type of test: functional.
In test [16] the target is T5, Delta-type opioid receptor (Homo sapiens, UniProt P41143). Put plainly: HTS Image-Based Screen for Antagonists of the DOR Receptor. [Related pubchem assays (depositor defined):AID1777, AID1785, AID1786, AID2133]. Type of test: functional.
Test [17] has as its target T4, Fatty acid synthase. As to the kind of experiment: inhibition of human FAS-TE enzyme activity – biochemical, endpoint fluorescence intensity, uHTS hits, dose response (AID 624327).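 Also: fluorescence from hydrolysis of an O-methyl fluorescein acyl ester substrate by the enzyme.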 Type of test: functional.
The target in test [18] is T5, Delta-type opioid receptor. Put plainly: HTS Image-Based Screen for Agonists of the DOR Receptor. [Related pubchem assays (depositor defined):AID1777, AID1786, AID2133]. Type of test: functional.
Another test addresses Mu-type opioid receptor (Homo sapiens, UniProt P35372). As to the kind of experiment: HTS Image-Based Screen for Agonists of the MOR Receptor. [Related pubchem assays (depositor defined):AID1777, AID1785, AID1786, AID2133]. Type of test: functional.
The nature of test [19]: viability of HCT116 lacking mutant beta-catenin – cell-based, human colon tumor, dose response (AID 1045).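 Also: HCT116 colon tumor cells with beta catenin knocked out; cells exposed to compound for 60 hours.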 Type of test: functional.
Test [20] deals with T6, Kappa-type opioid receptor (Homo sapiens, UniProt P41145). Type of test: functional.
The target of the next test is Beta-galactosidase (Escherichia coli, UniProt Q8VNN2). Type of test: functional.
Test [21] can be described thus: reduction of Shn3 3'UTR-driven luciferase in osteoblasts – cell-based, Clone20 osteoblasts, firefly luciferase, cherry-picked, dose response (AID 624132).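 Also: firefly luciferase luminescence from reporter carrying the Shn3 3'UTR in osteoblasts.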 Type of test: functional.
In test [22] the target is T6, Kappa-type opioid receptor. Type of test: functional. The source holds these as a separate data set.
Test [23] is described as follows: non-specific 3'UTR reporter inhibition in Clone20-Shn3RL – cell-based, Renilla luciferase, cherry-picked, counter-screen for Shn3 inhibitor project, dose response (AID 624133). Type of test: functional.
The nature of test [24]: loss of viability in HepG2 cells – cell-based, CellTiter-Glo, cherry-picked, cytotoxicity control for Shn3 inhibitor project, dose response (AID 624134). Type of test: functional. Background: ATP-based viability assays read luminescence as a measure of living cells.
Test [25] addresses 72 kDa type IV collagenase (Homo sapiens, UniProt P08253). Put plainly: Dose Response validation of uHTS RPN11 inhibitor hits using a MMP-2 Fluorescence assay. Type of test: functional.
Test [26] concerns the target 26S proteasome non-ATPase regulatory subunit 14 (Homo sapiens, UniProt O00487). As to the kind of experiment: inhibition of proteasome subunit RPN11 – biochemical, fluorescence polarization, uHTS hits, confirmation (AID 602368). Type of test: functional.
The target of another test is Prothrombin (Bos taurus, UniProt P00735). As to the kind of experiment: thrombin protease inhibitors – biochemical, fluorescence polarization, uHTS hits, dose response (AID 602369). Type of test: functional. (In general: Polarisation of emitted light reports the rotation of a fluorescent probe.)

Sequence of ATP-dependent molecular chaperone HSP82 (C4YTQ8 whole entry): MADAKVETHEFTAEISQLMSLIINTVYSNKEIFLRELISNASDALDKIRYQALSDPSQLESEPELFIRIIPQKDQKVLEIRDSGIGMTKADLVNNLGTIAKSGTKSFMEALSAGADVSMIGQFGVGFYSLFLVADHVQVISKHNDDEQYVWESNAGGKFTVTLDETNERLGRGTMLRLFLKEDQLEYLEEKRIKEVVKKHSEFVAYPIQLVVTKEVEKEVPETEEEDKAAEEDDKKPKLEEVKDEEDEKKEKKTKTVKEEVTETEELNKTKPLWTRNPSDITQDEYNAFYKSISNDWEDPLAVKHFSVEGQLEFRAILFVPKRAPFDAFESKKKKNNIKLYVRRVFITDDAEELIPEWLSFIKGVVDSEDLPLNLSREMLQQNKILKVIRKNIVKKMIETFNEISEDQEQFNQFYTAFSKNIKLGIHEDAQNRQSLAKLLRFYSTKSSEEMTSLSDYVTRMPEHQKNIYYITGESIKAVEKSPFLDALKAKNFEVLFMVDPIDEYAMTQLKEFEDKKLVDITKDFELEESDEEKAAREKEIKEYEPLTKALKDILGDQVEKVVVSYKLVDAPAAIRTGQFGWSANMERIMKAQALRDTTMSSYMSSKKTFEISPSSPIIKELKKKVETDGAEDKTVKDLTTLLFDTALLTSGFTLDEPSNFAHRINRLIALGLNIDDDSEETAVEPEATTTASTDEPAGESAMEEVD
T6 sequence (P41145 whole entry): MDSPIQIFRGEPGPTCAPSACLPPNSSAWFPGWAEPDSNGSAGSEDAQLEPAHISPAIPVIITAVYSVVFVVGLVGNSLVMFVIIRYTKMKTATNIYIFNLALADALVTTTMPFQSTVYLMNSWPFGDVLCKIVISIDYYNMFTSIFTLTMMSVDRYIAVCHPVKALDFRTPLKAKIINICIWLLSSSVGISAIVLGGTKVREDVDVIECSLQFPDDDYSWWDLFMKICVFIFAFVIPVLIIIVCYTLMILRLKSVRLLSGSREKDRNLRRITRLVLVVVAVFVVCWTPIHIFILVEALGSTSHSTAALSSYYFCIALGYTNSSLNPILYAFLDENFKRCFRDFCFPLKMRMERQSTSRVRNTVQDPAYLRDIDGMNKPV
T5 sequence (P41143 whole entry): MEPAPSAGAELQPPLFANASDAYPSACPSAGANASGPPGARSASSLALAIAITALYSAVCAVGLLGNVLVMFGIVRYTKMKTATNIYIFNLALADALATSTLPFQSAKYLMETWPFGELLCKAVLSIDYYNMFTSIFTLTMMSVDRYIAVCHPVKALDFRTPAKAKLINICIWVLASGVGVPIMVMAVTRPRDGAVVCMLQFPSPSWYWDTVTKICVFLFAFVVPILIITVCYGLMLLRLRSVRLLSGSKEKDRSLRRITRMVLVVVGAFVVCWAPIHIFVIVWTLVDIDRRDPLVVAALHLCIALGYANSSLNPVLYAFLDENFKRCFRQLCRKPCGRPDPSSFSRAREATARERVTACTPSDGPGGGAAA
T4 sequence (P49327 whole entry): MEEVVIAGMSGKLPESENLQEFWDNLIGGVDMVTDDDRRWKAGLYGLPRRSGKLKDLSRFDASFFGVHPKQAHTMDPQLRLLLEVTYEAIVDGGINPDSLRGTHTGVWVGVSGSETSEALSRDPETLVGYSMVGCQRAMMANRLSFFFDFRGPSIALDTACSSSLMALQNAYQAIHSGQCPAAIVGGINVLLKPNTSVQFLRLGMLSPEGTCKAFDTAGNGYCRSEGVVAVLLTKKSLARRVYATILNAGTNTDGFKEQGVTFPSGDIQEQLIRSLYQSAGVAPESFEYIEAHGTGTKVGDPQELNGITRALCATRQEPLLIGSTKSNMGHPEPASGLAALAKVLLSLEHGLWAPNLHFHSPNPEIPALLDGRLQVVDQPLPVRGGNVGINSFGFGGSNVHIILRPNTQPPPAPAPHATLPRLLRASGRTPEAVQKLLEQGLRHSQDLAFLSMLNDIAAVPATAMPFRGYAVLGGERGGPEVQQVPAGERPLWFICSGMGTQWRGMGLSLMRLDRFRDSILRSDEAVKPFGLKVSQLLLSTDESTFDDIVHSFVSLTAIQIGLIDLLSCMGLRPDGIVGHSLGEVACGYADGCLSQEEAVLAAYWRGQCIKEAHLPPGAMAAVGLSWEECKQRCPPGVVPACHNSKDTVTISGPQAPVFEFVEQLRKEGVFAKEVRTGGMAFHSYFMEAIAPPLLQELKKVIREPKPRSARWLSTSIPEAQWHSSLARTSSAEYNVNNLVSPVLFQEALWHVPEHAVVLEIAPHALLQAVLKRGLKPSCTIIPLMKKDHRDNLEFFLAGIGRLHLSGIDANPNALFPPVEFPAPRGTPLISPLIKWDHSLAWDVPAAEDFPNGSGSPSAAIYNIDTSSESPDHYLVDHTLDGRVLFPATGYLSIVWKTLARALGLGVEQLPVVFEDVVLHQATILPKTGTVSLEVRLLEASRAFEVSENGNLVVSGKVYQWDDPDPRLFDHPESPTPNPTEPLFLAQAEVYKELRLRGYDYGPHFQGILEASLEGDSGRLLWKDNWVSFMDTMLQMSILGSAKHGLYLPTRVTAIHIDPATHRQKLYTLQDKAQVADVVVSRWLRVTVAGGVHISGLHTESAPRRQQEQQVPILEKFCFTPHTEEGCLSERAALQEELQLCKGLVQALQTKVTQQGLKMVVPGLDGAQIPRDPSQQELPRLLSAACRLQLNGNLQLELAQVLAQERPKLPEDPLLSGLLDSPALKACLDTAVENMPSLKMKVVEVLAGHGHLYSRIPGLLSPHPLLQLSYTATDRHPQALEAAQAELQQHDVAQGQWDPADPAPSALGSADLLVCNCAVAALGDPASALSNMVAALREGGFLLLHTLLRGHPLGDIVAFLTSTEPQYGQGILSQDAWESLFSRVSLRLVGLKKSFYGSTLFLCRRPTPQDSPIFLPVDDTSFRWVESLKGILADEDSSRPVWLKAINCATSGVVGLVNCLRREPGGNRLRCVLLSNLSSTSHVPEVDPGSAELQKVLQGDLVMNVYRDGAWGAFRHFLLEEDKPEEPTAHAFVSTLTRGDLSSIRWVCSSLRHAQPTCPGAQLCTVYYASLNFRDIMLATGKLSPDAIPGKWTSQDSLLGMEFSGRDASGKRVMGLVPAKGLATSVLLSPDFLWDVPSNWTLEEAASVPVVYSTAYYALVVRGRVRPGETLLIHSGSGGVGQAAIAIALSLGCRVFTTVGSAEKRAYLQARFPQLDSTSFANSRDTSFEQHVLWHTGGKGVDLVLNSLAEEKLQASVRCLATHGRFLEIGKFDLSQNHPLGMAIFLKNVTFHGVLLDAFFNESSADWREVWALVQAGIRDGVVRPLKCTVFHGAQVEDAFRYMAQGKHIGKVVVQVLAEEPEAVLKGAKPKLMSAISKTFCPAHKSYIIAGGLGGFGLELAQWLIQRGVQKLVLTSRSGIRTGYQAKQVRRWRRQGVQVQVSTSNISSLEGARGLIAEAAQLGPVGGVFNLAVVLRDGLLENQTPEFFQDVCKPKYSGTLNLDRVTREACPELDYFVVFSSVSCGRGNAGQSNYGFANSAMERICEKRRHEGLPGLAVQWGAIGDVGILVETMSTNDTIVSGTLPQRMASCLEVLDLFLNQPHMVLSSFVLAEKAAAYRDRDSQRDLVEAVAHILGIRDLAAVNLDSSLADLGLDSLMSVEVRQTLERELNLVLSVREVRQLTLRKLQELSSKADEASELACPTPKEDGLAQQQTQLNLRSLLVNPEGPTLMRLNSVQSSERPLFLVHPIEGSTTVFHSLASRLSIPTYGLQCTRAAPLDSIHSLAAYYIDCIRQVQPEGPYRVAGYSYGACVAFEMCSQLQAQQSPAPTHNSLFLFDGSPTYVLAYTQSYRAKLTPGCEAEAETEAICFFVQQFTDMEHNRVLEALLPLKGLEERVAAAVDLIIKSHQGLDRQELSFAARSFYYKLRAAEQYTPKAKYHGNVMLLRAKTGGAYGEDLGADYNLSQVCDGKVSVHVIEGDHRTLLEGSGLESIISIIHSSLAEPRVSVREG
Sequence of 72 kDa type IV collagenase (P08253 whole entry): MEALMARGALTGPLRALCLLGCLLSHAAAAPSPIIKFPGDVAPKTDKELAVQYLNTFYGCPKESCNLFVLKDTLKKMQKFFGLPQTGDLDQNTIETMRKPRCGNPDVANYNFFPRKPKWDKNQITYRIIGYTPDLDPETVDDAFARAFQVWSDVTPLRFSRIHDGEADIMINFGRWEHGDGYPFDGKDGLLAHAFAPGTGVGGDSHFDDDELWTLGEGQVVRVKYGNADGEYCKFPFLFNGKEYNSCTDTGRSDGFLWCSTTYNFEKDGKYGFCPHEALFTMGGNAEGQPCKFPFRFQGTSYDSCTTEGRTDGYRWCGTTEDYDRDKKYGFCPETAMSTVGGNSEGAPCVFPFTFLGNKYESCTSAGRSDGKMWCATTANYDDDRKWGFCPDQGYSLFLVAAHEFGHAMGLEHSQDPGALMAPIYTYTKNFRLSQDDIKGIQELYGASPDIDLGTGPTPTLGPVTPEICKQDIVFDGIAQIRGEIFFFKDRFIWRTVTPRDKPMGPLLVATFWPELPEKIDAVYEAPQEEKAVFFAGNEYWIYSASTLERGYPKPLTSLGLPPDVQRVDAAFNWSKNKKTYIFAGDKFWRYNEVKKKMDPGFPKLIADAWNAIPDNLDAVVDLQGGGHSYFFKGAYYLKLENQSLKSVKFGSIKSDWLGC
Sequence of 26S proteasome non-ATPase regulatory subunit 14 (O00487 whole entry): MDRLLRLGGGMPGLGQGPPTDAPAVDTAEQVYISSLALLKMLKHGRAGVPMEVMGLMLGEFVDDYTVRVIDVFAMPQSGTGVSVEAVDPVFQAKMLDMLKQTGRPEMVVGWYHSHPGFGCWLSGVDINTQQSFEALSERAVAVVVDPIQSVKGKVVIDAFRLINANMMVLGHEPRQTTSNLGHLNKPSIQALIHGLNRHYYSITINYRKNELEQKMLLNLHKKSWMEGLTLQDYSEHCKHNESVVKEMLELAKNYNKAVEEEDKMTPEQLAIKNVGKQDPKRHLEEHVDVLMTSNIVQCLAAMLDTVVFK

As usually defined, the AC50 is the concentration at which the activity in the assay is half-maximal. Turning to `O=C1c2ccccc2C(=O)C1c1ccccn1`, the values for the half-maximal activity concentration (AC50) (in test [1]; in the test with HeLa) were 9.62 µM (active) and 139 µM (active), respectively.

For orientation: CC50 means the concentration that lowers cell viability or growth by half. In general, EC50 refers to the concentration giving half of the maximal effect. For the compound `Oc1ccc(NCc2cccc(OCc3ccc(F)cc3)c2)cc1`, the cytotoxic concentration (CC50) (in test [2]; with Vero) was > 40 µM (active) each time. The half-maximal effective concentration (EC50) in test [3], in test [4] and in test [5] was > 79.4 µM (not active) in each case. For the same compound, the AC50 on Caspase-6 is 6.29 µM (active).

As usually defined, the IC50 is the midpoint of a concentration-inhibition curve. In the case of `COc1ccccc1OCC(=O)N/N=C/C=C/c1ccc([N+](=O)[O-])o1`, in test [6], the CC50 is 23 µM (active). The EC50 was 51.2 µM (active) in test [7]; 0.105 µM (active) in test [8]; 0.654 µM (active) in test [9]; > 160 µM (inactive) in test [10]; > 180 µM (inactive) in test [11]; 14.2 µM (active) in test [13]. In addition, the 50% inhibitory concentration (IC50) in “cells” was 2.27 µM (active). The AC50 in [12] is 7.39 µM (active).

`O=C(NCc1ccc(F)cc1)C(c1ccccc1)N(CC1CCCO1)C(=O)Cn1nnc2ccccc21` (stereo unspecified): the EC50 in test [7] is > 150 µM (inactive); in test [9], 1.07 µM (active); in [10], > 150 µM (inactive); in test [11], > 180 µM (inactive).

By pIC50 is commonly meant −log10 of the IC50, conventionally taken in molar units. For the compound `CCC(=O)OCCNc1cc(Sc2nc3ccccc3[nH]2)c2nonc2c1[N+](=O)[O-]`, the EC50 was 6.88 µM (active) in test [14]; > 32 µM (inactive) in [18]; > 32 µM (inactive) on Mu-type opioid receptor; 5.01 µM (active) in [19]; > 31.5 µM (inactive) on Beta-galactosidase. Besides, the IC50 on Fatty acid synthase [15] was 0.845 µM (active); in test [16], > 32 µM (inactive); at Fatty acid synthase [17], 2.04 µM (active); in test [20], 2.56 µM (active). Also, the CC50 in test [2] was 14.7 µM (active); in the test on Vero it was 19 µM (active). The AC50 is 9.14 µM (active) in test [12], 1.09 µM (active) in [21], 8.68 µM (active) in test [23] and 27.4 µM (active) in test [24]. The pIC50 in test [22] was 4.72.

`COc1ccc2c3c([nH]c2c1)C(C)NCC3` (stereo unspecified): the results for the IC50 (in test [25]; in test [26]; at Prothrombin) were > 100 µM (inactive), 17.9 µM (active) and 13.7 µM (active), respectively. In addition, the AC50 in [1] is 2.99 µM (active).
